Source: US20100316573A1, “Organic Compounds” (priority 2006, published 2010)

Test system: TNFα mRNA in SKOV-3 cells
Assay: TNFα mRNA induction in SKOV-3 cells (FIG. 2), fold increase relative to untreated cells
Description: Each of the tumor cell lines indicated was treated for 18 hrs with 1 uM of the Compound II. mRNA was harvested using Qiagen's TurboCapture mRNA isolation kit. cDNA was synthesized using BioRad iScript cDNA synthesis kit. Primers specific for the cDNA encoding TNFalpha were then used to PCR amplify TNF cDNA from each sample using Applied. Biosystems TaqMan Universal PCR Master Mix. Data is normalized to B-Actin mRNA and expressed as relative levels of TNF mRNA.
The graph depicting TNF induction by compound II includes nine bars correlating to the fold increase of TNF relative to untreated cells.

CC[C@@H](c1cncc(C(=O)c2ccc(F)cc2)c1)N(CC)C(=O)[C@@H](NC(=O)[C@H](C)NC)C1CCCCC1 [Compound III]
induction of TNFα mRNA (in words): induce TNFα mRNA in SKOV-3 cells in a dose dependent manner
fold increase of TNF relative to untreated cells (100 nM compound + PI (MG132)): 15-20 fold increase
fold increase of TNF relative to untreated cells (100 nM compound + ZVAD): 85-95 fold increase
fold increase of TNF relative to untreated cells (100 nM compound alone): 85-95 fold increase
fold increase of TNF relative to untreated cells (1000 nM compound + PI (MG132)): 30-40 fold increase
fold increase of TNF relative to untreated cells (1000 nM compound + ZVAD): 75-80 fold increase
fold increase of TNF relative to untreated cells (1000 nM compound + sTNFR (soluble TNFα receptor)): 0-1 fold increase
fold increase of TNF relative to untreated cells (1000 nM compound alone): 105-115 fold increase
fold increase of TNF relative to untreated cells (100 nm compound + sTNFR (soluble TNFα receptor)): 0-3 fold increase
